Measurements published in publication PMC6921279 (Frontiers in Endocrinology, 2019).

How the values were obtained:
EGFR Tyr845 = test: CRF-induced EGFR phosphorylation at Tyr845 in COS-7 cells expressing HA-CRF1R; assay type: cell-based; conditions: 100 nM wortmannin, 30 min pretreatment; 100 nM CRF, 5 min
Protocol: COS-7 cells (from the American Type Culture Collection) were cultured at 37°C in a humidified atmosphere of 95% air, 5% CO2, in DMEM supplemented with 10% FBS, 100 μg/ml streptomycin, and 100 units/ml penicillin (COS-7 growth medium). Transient transfections were performed using LipofectAMINE (Life Technologies: Gaithersburg, MD) as described previously ([27]). Cells were seeded at 8 × 10^5 cells/10-cm dish in COS-7 medium and cultured for 3 days before transfection. COS-7 cells were transfected in 5 ml/dish OptiMEM containing 10 μg/ml LipofectAMINE with empty vector, pcDNA3 encoding the HA-CRF1R or the HA-CRF1R-Δ386 mutant. […]
The protocols for measuring total and phosphorylated ERK1/2, c-Src, PYK2, Akt, and EGFR have been previously published ([28], [29]). […] The labeled bands were quantified using the Quantity One 4.6.3 software program (Bio-Rad).
Figure 6 CRF mediates EGFR phosphorylation at Tyr^845 and activation of PYK2. […] Total cell lysates were separated by SDS-PAGE and analyzed by immunoblotting with anti-p-EGFR Tyr^845 (A,B) or anti-p-PYK2 Tyr^402 (E), as described in Materials and Methods. EGFR and ERK1/2 phosphorylation were quantitated by densitometry, and mean values were plotted from three to five independent experiments. […] Src and EGFR were quantitated by densitometry, and mean values were plotted from three independent experiments. […]

[1] = test system: CRF1R-mediated Akt phosphorylation; test: CRF-induced Akt phosphorylation at Ser473 in COS-7 cells expressing HA-CRF1R; assay type: cell-based, human; conditions: wortmannin 100 nM, 30 min pretreatment; 100 nM CRF, 5 min
Protocol: Plasmid pRK5 encoding the carboxyl terminus of βARK that contains its βγ-binding domain (ct-βARK) was kindly provided by Dr. W. Koch (Center for Translational Medicine, Temple University, Philadelphia, PA), which is a scavenger for G protein βγ subunits ([25]). […] Plasmid pUSEamp encoding dominant-negative Akt-K179M (dn-Akt) was from Upstate Biotechnology (Lake Placid, NY).
COS-7 cells (from the American Type Culture Collection) were cultured at 37°C in a humidified atmosphere of 95% air, 5% CO2, in DMEM supplemented with 10% FBS, 100 μg/ml streptomycin, and 100 units/ml penicillin (COS-7 growth medium). Transient transfections were performed using LipofectAMINE (Life Technologies: Gaithersburg, MD) as described previously ([27]). Cells were seeded at 8 × 10^5 cells/10-cm dish in COS-7 medium and cultured for 3 days before transfection. COS-7 cells were transfected in 5 ml/dish OptiMEM containing 10 μg/ml LipofectAMINE with empty vector, pcDNA3 encoding the HA-CRF1R or the HA-CRF1R-Δ386 mutant. […] After replacing the transfection medium with fresh growth medium, transfected COS-7 cells were cultured for 1 day. Subsequently, cells were re-seeded in 6-well plates and cultured for an additional day prior to the experiment.
The protocols for measuring total and phosphorylated ERK1/2, c-Src, PYK2, Akt, and EGFR have been previously published ([28], [29]). After cells were cultured to 60–70% confluence, they were serum-deprived for 24 h. On the day of the experiment, cells were treated with the indicated ligands and inhibitors. […] After treatment, cells were placed on ice, the media was aspirated, and the cells were washed twice with ice-cold PBS and lysed in 100 μl of Laemmli sample buffer 1X. The lysates were briefly sonicated, heated at 95°C for 5 min, and centrifuged for 5 min at 14,000 rpm. Resulting supernatants were loaded in separate lanes of a 10% SDS-PAGE gels and electrophoresed. Next, Western transfer on to PDVF membranes was completed. The Western blots were then probed with specific antibodies targeting phosphorylated and non-phosphorylated forms of ERK1/2, c-Src, PYK2, Akt, and EGFR for primary immunodetection. […] The labeled bands were quantified using the Quantity One 4.6.3 software program (Bio-Rad).
Figure 7 CRF mediates Akt activation. […] Total cell lysates were separated by SDS-PAGE and analyzed by immunoblotting with anti-p-Akt Ser^473, as described in Materials and Methods. Akt phosphorylation was quantitated by densitometry, and mean values were plotted from three to five independent experiments. […]

SMILES: COC[C@H]1OC(=O)c2coc3c2[C@@]1(C)C1=C(C3=O)[C@@H]2CCC(=O)[C@@]2(C)C[C@H]1OC(C)=O [wortmannin]
- effect on CRF-induced EGFR Tyr845 phosphorylation (EGFR Tyr845): had no effect on CRF-induced phosphorylation of EGFR at Tyr^845
- effect on CRF1R-mediated Akt signaling activation [1]: abolished CRF1R-mediated Akt signaling activation
